What was measured:
[1] = target: T1, substance P receptors on rat cortex (Rattus norvegicus, UniProt P14600); assay: antagonism of the binding of substance P to its receptor, rat cortex
T1 construct: in tests performed on rat cortex; from tissue; host or cells: rat cortex
Protocol: (§1) Thus the compounds according to the invention antagonize the binding of substance P to its receptor with a Ki of between 0.1 and 800 nM in tests performed on rat cortex and with a Ki of between 0.01 and 30 nM in tests performed on the lymphoblastic cell line IM9.

[2] = target: T2, substance P receptors on human cells of the IM9 line (Homo sapiens, UniProt P25103); assay: antagonism of the binding of substance P to its receptor, lymphoblastic cell line IM9
T2 construct: in tests performed on the lymphoblastic cell line IM9; endogenous in cells; host or cells: IM9 (human lymphoblastic cell line)
Protocol: as §1

neurokinin receptors = assay: affinity for the neurokinin receptors; type: binding
substance P = substance P antagonism
[3] = target: substance P receptors (rat receptor); details: 3H-SP binding on rat cortical membranes, Snider et al. 1991; cited from earlier work
[4] = target: substance P receptors (bovine receptor); details: 3H-SP binding on bovine caudal membrane, Snider et al. 1991; cited from earlier work
[5] = test system: substance P receptors, IM9 cells; details: substance P binding, Gitter et al. 1991; cited from earlier work
[6] = test system: substance P receptors, U373 MG cells; details: substance P binding, Gitter et al. 1991; cited from earlier work
NK1 receptor = details: agonist; D. Regoli 1988 and 1989; cited from earlier work

T2 sequence (P25103 whole entry): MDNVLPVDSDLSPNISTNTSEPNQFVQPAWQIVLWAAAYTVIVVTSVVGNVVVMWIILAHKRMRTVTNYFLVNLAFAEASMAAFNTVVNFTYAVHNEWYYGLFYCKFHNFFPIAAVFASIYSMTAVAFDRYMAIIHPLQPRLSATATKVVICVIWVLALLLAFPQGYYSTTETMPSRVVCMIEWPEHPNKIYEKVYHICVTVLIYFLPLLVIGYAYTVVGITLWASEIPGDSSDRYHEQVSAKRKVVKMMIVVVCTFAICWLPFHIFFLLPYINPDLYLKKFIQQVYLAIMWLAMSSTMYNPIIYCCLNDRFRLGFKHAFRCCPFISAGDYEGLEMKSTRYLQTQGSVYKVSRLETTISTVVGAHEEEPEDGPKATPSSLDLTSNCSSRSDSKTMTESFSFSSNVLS
T1 sequence (P14600 whole entry): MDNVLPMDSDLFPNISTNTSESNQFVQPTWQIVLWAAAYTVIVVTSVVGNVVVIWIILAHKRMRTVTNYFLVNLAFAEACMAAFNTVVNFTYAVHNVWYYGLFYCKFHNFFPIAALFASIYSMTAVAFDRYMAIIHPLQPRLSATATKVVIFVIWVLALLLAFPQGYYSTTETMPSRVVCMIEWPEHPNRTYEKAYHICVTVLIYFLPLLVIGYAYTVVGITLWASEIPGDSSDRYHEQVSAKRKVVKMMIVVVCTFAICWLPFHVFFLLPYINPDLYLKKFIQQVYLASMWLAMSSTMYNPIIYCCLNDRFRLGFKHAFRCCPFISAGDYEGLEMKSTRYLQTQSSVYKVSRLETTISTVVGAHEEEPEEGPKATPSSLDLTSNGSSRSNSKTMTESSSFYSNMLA

With `CC(C)Oc1cccc(CC(=O)N(C)CC(CCN2CCC(c3ccccc3)CC2)c2ccc(Cl)c(Cl)c2)c1` (stereo not drawn) [(I'b), N-Methyl-N-[4-(4-phenylpiperidin-1-yl)-2-(3,4-dichlorophenyl)butyl]-3-isopropoxyphenylacetamide] the Ki [1] was 0.3 to 0.6 nM, the Ki [2] was 0.3 to 0.6 nM and the “affinity for the neurokinin receptors” value (neurokinin receptors) was “very high affinity”. For the same molecule, the “substance P antagonism” value (substance P) was “powerful substance P antagonists”.

In the case of `COc1ccccc1CN[C@H]1C2CCN(CC2)[C@H]1C(c1ccccc1)c1ccccc1` [CP 96,345], the Ki [3] is listed as 240 nM, the Ki [4] is listed as 3 nM and the Ki [5] is listed as 0.4 nM. For the same molecule, the Ki [6] was 0.4 nM.

In the case of [Sar^9, Met-(O2)^11 ]-SP, the “selectivity for the NK1 receptor” value (NK1 receptor) is listed as “selective”.
